From PubChem BioAssay (NCI)
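48-hour exposure; five concentrations; linearly interpolated endpoints. Abbreviation: GI50, concentration required for 50% inhibition of growth. TGI denotes the concentration required for complete inhibition of growth.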

How the values were obtained:
Assay in all cases: NCI tumour cell line growth inhibition, 48 h
SN12K1 renal = system: SN12K1 renal
P388 leukemia = system: P388 leukemia
HOP-18 NSCLC = system: HOP-18 NSCLC
P388/ADR leukemia = system: P388/ADR leukemia
DLD-1 colon = system: DLD-1 colon
786-0 renal = system: 786-0 renal
LXFL 529 NSCLC = system: LXFL 529 NSCLC
BT-549 breast = system: BT-549 breast
RXF-631 renal = system: RXF-631 renal

CC12CCC3C(CCC4(O)C=CCCC34C=O)C1(O)CC(O)C2c1ccc(=O)oc1 (stereo not drawn)
TGI (SN12K1 renal): 0.108 µM
TGI (P388 leukemia): 500 µM
TGI (HOP-18 NSCLC): 0.371 µM
TGI (P388/ADR leukemia): > 500 µM
TGI (DLD-1 colon): 0.098 µM

Cc1ccc(NCCO)cc1
TGI (786-0 renal): > 100 µM
TGI (DLD-1 colon): > 100 µM
TGI (LXFL 529 NSCLC): > 100 µM

COc1ccc(-c2nnc3c4ccccc4sn23)cc1
TGI (HOP-18 NSCLC): 83.9 µM
TGI (LXFL 529 NSCLC): > 100 µM

Cc1cc(C)c(S(=O)(=O)N(CCCCCCN)OCCCON(CCCCCCN)S(=O)(=O)c2c(C)cc(C)cc2C)c(C)c1
TGI (BT-549 breast): 3.26 µM

COc1ccc2c(c1)C(=O)/C(=C/c1ccccc1)C2
TGI (BT-549 breast): > 100 µM

CCCCN(CCCC)C1(c2cc3ccccc3s2)CCCCC1
TGI (786-0 renal): 27.3 µM
TGI (BT-549 breast): 35.1 µM

CC1(C)CCCC2(C)[C@@H]1CC[C@]13C[C@](C)(CC[C@@H]21)[C@@H]3CO (stereo partly drawn)
TGI (RXF-631 renal): > 100 µM
TGI (DLD-1 colon): > 100 µM
TGI (LXFL 529 NSCLC): > 100 µM

CCNc1nc2c(=O)n(C)c(=O)n(C)c2s1
TGI (786-0 renal): > 100 µM
TGI (HOP-18 NSCLC): > 100 µM
TGI (DLD-1 colon): > 100 µM
TGI (LXFL 529 NSCLC): > 100 µM

C=C1CC2(C)CCC(OC(=O)C3(C)OC3C)C(C)(OC(C)=O)C2CC1=C(C)C (stereo not drawn)
TGI (BT-549 breast): > 100 µM

O=C(O)CSc1nc2ccccc2[nH]1
TGI (786-0 renal): > 100 µM
TGI (BT-549 breast): > 100 µM

ClCc1nnc2n1-c1ccc(Cl)cc1SC2
TGI (SN12K1 renal): 7.86 µM
TGI (P388 leukemia): 4.24 µM
TGI (HOP-18 NSCLC): 13.2 µM
TGI (P388/ADR leukemia): > 25.2 µM

NCCSC1(O)C(=O)c2ccccc2-c2ccccc21 (stereo not drawn)
TGI (786-0 renal): 3.46 µM
GI50 (BT-549 breast): 1.56 µM
TGI (BT-549 breast): 2.9 µM

COc1cc(CN(C)N2C(=O)c3cccc4cc([N+](=O)[O-])cc(c34)C2=O)cc(OC)c1OC
TGI (BT-549 breast): > 100 µM

O=C(NC/C=C/CO)c1ccccc1
TGI (SN12K1 renal): > 100 µM
TGI (P388 leukemia): > 100 µM
TGI (HOP-18 NSCLC): > 100 µM
TGI (P388/ADR leukemia): > 100 µM
TGI (DLD-1 colon): > 100 µM

O=c1n(Cc2ccccc2)c2ccccc2n1CC1CS1 (stereo not drawn)
TGI (LXFL 529 NSCLC): > 100 µM
